The text below walks through data of paper PMC8380656, “The structure and flexibility analysis of the Arabidopsis synaptotagmin 1 reveal the basis of its regulation at membrane contact sites” (Life Science Alliance, 2021).

Sequences and labels used below:
T1: SYT1C2A (Arabidopsis thaliana, UniProt Q9SKR2)
T1 construct: gene SYT1; C2A domain, residues K253-E397; pGEX6P1, GST tag cleaved with PreScission protease; expressed in E. coli Rosetta 2 (DE3) pLysS
T1 sequence (Q9SKR2 253-397): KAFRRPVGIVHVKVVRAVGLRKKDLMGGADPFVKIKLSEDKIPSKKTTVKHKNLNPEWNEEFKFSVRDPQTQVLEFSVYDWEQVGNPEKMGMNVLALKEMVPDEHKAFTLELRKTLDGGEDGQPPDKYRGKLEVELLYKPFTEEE

B1: SYT1-SMPC2A (Arabidopsis synaptotagmin 1, SMP and C2A domains, residues N34-E397) (domain or fragment, UniProt Q9SKR2 34-397, looked up)
chain: NDVKDPEIRSIADQDPKAMLRMLPEIPLWVKNPDFDRVDWINRFLEYMWPYLDKAICKTAKNIAKPIIEEQIPKYKIDSVEFETLTLGSLPPTFQGMKVYLTDEKELIMEPCLKWAANPNILVAIKAFGLKATVQVVDLQVFAQPRITLKPLVPSFPCFANIYVSLMEKPHVDFGLKLGGADLMSIPGLYRFVQEQIKDQVANMYLWPKTLVVPILDPAKAFRRPVGIVHVKVVRAVGLRKKDLMGGADPFVKIKLSEDKIPSKKTTVKHKNLNPEWNEEFKFSVRDPQTQVLEFSVYDWEQVGNPEKMGMNVLALKEMVPDEHKAFTLELRKTLDGGEDGQPPDKYRGKLEVELLYKPFTEEE
notes: Expressed from pGEX6P1; also called SMP2C2A; source: E. coli Rosetta 2 (DE3) pLysS, purified (Glutathione Sepharose 4B, GST cleaved with Precission protease, Superdex 200)

In one data set the target is T1, SYT1C2A. The data set can be described thus: thermal shift, label-free nanoDSF (Tycho NT.[…]). Type of data set: binding. The conditions noted are these: 58 μM ligand, 5.8 μM protein, 20 μM EGTA, Tris-HCl pH 8.0; absolute inflexion temperature, unbound control 57.4 ± 0.5; polybasic site. Background: DSF heats the sample and reads unfolding from a dye or from intrinsic fluorescence.
Take `O=P(O)(O)O[C@H]1[C@H](O)[C@@H](O)[C@H](OP(=O)(O)O)[C@@H](OP(=O)(O)O)[C@H]1O` [IP(1,3,4), inositol 1,3,4-trisphosphate]: the SYT1C2A was found to be 64.2 ± 0.1 °C.

As for `O=P(O)(O)O[C@@H]1[C@@H](OP(=O)(O)O)[C@H](OP(=O)(O)O)[C@@H](O)[C@@H](O)[C@H]1OP(=O)(O)O` [IP(1,4,5,6), inositol 1,4,5,6-tetraphosphate], the SYT1C2A is 62.6 ± 0.2 °C.

With `O=P(O)(O)O[C@H]1[C@H](OP(=O)(O)O)[C@@H](OP(=O)(O)O)[C@@H](O)[C@@H](O)[C@@H]1OP(=O)(O)O` [IP(3,4,5,6), inositol 3,4,5,6-tetraphosphate], the SYT1C2A was 65.2 ± 0.4 °C.

Take `O=P(O)(O)O[C@H]1[C@H](O)[C@@H](O)[C@H](OP(=O)(O)O)[C@@H](O)[C@H]1O` [IP2, inositol 1,4-biphosphate]: the SYT1C2A stood at 59.4 ± 0.2 °C.

For `O=P(O)(O)O[C@@H]1[C@H](O)[C@H](O)[C@@H](OP(=O)(O)O)[C@H](OP(=O)(O)O)[C@H]1O` [IP3, inositol 1,4,5-trisphosphate], the SYT1C2A was found to be 62.60 ± 0.05 °C.

Another data set concerns the molecule itself. The data set can be described thus: SAXS (SEC-SAXS); 45 ul of SYT1SMPC2A at 6.6 mg ml^-1 injected onto Superdex 200 increase 3.2/300 at 20°C; 20 mM Tris pH 8, 100 mM NaCl, 5% glycerol, 2 mM DTT; molecular mass from the Porod volume.
Details: not given
A word on the stoichiometry N: it is a count of units in the complex or per binding partner. As for B1, the “stoichiometry N” value was found to be 2.
